Test results: patent publication US4476120A, “Thiolic derivatives of erythromycin having therapeutic activity, and pharmaceutical compositions containing them” (Sigma Tau Indistrie Farmaceutiche Riunites, p.A, priority 1982, dated 1984)
In brackets after ≈: the same amount, converted by molar mass. Like-named read-outs stand apart in the source and are kept apart here.

How the values were obtained:
Staph. aureus SS 07 [1] = experiment: Experimental infection induced by Staph. aureus SS 07; format: in vivo, Swiss white mice; conditions: Staphylococcus aureus, SS07, in Mus musculus, sc, 168 h, read-out: ED50 (reliability limits)
Method: (§1) Swiss white mice of 20 g body weight were used, infected by parenteral administration of lethal amounts of pathogenic […] of Staph. aureus SS 07 and D. pneumoniae SS 23.
(§2) The antibiotics were administered at the time of injecting the infecting germ and 6 and 24 hours later. On the basis of the survival after 7 days, the ED50 values were determined, as reported in the following table II and III, wherein the reliability limits are indicated in brackets.

D. pneumoniae SS 23 [2] = experiment: Experimental infection induced by D. pneumoniae SS 23; format: in vivo, Swiss white mice
Method: as §1, §2

[3] = Mucolytic activity: obstruction of the bronchial tract after SO2 inhalation; format: in vivo, Sprague Dawley male rats; conditions: SO2, 15 days
[4] = Histological examination of bronchi after SO2 inhalation; format: in vivo, Sprague Dawley male rats
B. anthranis SS 08 = format: cell-based; conditions: Brain Heart Infusion, estolate and RV11-RV15 previously hydrolized, unit assumed
Citrobacter SS 09 = format: cell-based; conditions: Brain Heart Infusion, estolate and RV11-RV15 previously hydrolized, unit assumed
Staph. albus SS 03 = format: cell-based; conditions: Brain Heart Infusion, estolate and RV11-RV15 previously hydrolized, unit assumed
Strept. faecalis SS 19 = format: cell-based; conditions: Brain Heart Infusion, estolate and RV11-RV15 previously hydrolized, unit assumed
Ps. aeruginosa SS 10 = format: cell-based; conditions: Brain Heart Infusion, estolate and RV11-RV15 previously hydrolized, unit assumed
Pr. vulgaris SS 10 = format: cell-based; conditions: Brain Heart Infusion, estolate and RV11-RV15 previously hydrolized, unit assumed
E. coli SS 06 = format: cell-based; conditions: Brain Heart Infusion, estolate and RV11-RV15 previously hydrolized, unit assumed
B. cereus ATCC 11778 = format: cell-based; conditions: Brain Heart Infusion, estolate and RV11-RV15 previously hydrolized, unit assumed
S. lutea ATCC 9341 = format: cell-based; conditions: Brain Heart Infusion, estolate and RV11-RV15 previously hydrolized, unit assumed
Cl. tetani SS 17 = format: cell-based; conditions: Brain Heart Infusion, estolate and RV11-RV15 previously hydrolized, unit assumed
Staph. albus SS 04 = format: cell-based; conditions: Brain Heart Infusion, estolate and RV11-RV15 previously hydrolized, unit assumed
[5] = Hematic levels in the healthy volunteer; format: in vivo, healthy volunteers; conditions: oral, 500 mg of erythromycin, average
Excerpt: For the dosing, the microbiological method using a B. subtilis strain was adopted.

[6] = in vivo; for Hematic levels in the rat: po, 100 mg/kg
Acute toxicity = format: in vivo; conditions: mouse, in vivo, po, 14400 min
Method: The acute toxicity was assessed in Swiss white mice by oral and intravenous route. The LD50 values have been calculated by the methods of Probits, starting from the mortality recorded 10 days after the treatment.

Kl. aerogenes SS 71 = format: cell-based; conditions: Brain Heart Infusion, estolate and RV11-RV15 previously hydrolized, unit assumed
Citrobacter SS 05 = format: cell-based; conditions: Brain Heart Infusion, estolate and RV11-RV15 previously hydrolized, unit assumed
Br. melitensis SS 19 = format: cell-based; conditions: unit assumed
S. heidelberg SS 18 = format: cell-based; conditions: Brain Heart Infusion, estolate and RV11-RV15 previously hydrolized, unit assumed
Sr. marcescens SS 03 = format: cell-based; conditions: Brain Heart Infusion, estolate and RV11-RV15 previously hydrolized, unit assumed
Staph. aureus SS 07 [7] = format: cell-based; conditions: Brain Heart Infusion, estolate and RV11-RV15 previously hydrolized, unit assumed
Br. abortus SS 7 = format: cell-based; conditions: Brain Heart Infusion, estolate and RV11-RV15 previously hydrolized, unit assumed
E. coli SS 05 = format: cell-based; conditions: Brain Heart Infusion, estolate and RV11-RV15 previously hydrolized, unit assumed
B. subtilis ATCC 6633 = format: cell-based; conditions: Brain Heart Infusion, estolate and RV11-RV15 previously hydrolized, unit assumed
B. subtilis SS 127 = format: cell-based; conditions: Brain Heart Infusion, estolate and RV11-RV15 previously hydrolized, unit assumed
[8] = tested on: Strept. haemolyticus SS 17; format: cell-based; conditions: Brain Heart Infusion, estolate and RV11-RV15 previously hydrolized, unit assumed
C. diphtheriae SS 19 = format: cell-based; conditions: Brain Heart Infusion, estolate and RV11-RV15 previously hydrolized, unit assumed
N. gonorreae SS 27 = format: cell-based; conditions: Brain Heart Infusion, estolate and RV11-RV15 previously hydrolized, unit assumed
Staph. aureus SS 09 = format: cell-based; conditions: Brain Heart Infusion, estolate and RV11-RV15 previously hydrolized, unit assumed
Pr. mirabilis SS 09 = format: cell-based; conditions: Brain Heart Infusion, estolate and RV11-RV15 previously hydrolized, unit assumed
Kl. pneumoniae SS 04 = format: cell-based; conditions: Brain Heart Infusion, estolate and RV11-RV15 previously hydrolized, unit assumed
Excerpt: (§3) In the following table I the MIC/ml values are indicated corresponding to the lowest concentration capable of inducing a complete inhibition of the bacterial development.

H. tubercolosis SS 03 = format: cell-based; conditions: Brain Heart Infusion, estolate and RV11-RV15 previously hydrolized, unit assumed
Excerpt: as §3

S. infantis SS 08 = format: cell-based; conditions: Brain Heart Infusion, estolate and RV11-RV15 previously hydrolized, unit assumed
Staph. aureus SS 08 = format: cell-based; conditions: Brain Heart Infusion, estolate and RV11-RV15 previously hydrolized, unit assumed
D. pneumoniae SS 23 [9] = format: cell-based; conditions: Brain Heart Infusion, estolate and RV11-RV15 previously hydrolized, unit assumed
[10] = tested on: Strept. haemolyticus SS 18; format: cell-based; conditions: Brain Heart Infusion, estolate and RV11-RV15 previously hydrolized, unit assumed
N. meningitidis SS 04 = format: cell-based; conditions: Brain Heart Infusion, estolate and RV11-RV15 previously hydrolized, unit assumed
E. coli SS 04 = format: cell-based; conditions: Brain Heart Infusion, estolate and RV11-RV15 previously hydrolized, unit assumed
H. pertussis SS 03 = format: cell-based; conditions: Brain Heart Infusion, estolate and RV11-RV15 previously hydrolized, unit assumed
E. coli SS 07 = format: cell-based; conditions: Brain Heart Infusion, estolate and RV11-RV15 previously hydrolized, unit assumed
E. aerogenes SS 011 = format: cell-based; conditions: Brain Heart Infusion, estolate and RV11-RV15 previously hydrolized, unit assumed
B. anthranis SS 09 = format: cell-based; conditions: B. anthranis SS 09 (14 bis); Brain Heart Infusion; estolate and RV11-RV15 previously hydrolized; unit assumed
C. albicans SS 04 = format: cell-based; conditions: Brain Heart Infusion, estolate and RV11-RV15 previously hydrolized, unit assumed
E. cloacae SS 07 = format: cell-based; conditions: Brain Heart Infusion, estolate and RV11-RV15 previously hydrolized, unit assumed
H. influentiae SS 02 = format: cell-based; conditions: Brain Heart Infusion, estolate and RV11-RV15 previously hydrolized, unit assumed

## CCOC(=O)CCC(=O)O[C@H]1[C@H](O[C@@H]2[C@@H](C)[C@H](O[C@H]3C[C@@](C)(OC)[C@@H](O)[C@H](C)O3)[C@@H](C)C(=O)O[C@H](CC)[C@@](C)(O)[C@H](O)[C@@H](C)C(=O)[C@H](C)C[C@@]2(C)O)O[C@H](C)C[C@@H]1N(C)C [erythromycin ethyl succinate, reference compound]
Staph. aureus SS 07 [1]
  ED50: 1.03 mg/kg
D. pneumoniae SS 23 [2]; Streptococcus pneumoniae, SS23, in Mus musculus, sc, 168 h, read-out: ED50 (reliability limits)
  ED50: 54.2 mg/kg
[3]; i.m., 250 mg/kg
  Partial obstruction (% incidence): 20%
  Total obstruction, compact plug (% incidence): 53.33%
  Total obstruction, nodular mass (% incidence): 26.66%
  Total obstruction, pimply mass (% incidence): 13.33%
[4]; i.m., 250 mg/kg
  bronchial epithelium reaction: the bronchial epithelium reacts through a proliferation of cells, mainly cup-shaped cells
  histological appearance of obstructed bronchial tract: the bronchial obstruction is formed by abundant mucus admixed with fibrin

## CCC(=O)O[C@H]1[C@H](O[C@@H]2[C@@H](C)[C@H](O[C@H]3C[C@@](C)(OC)[C@@H](O)[C@H](C)O3)[C@@H](C)C(=O)O[C@H](CC)[C@@](C)(O)[C@H](O)[C@@H](C)C(=O)[C@H](C)C[C@@]2(C)O)O[C@H](C)C[C@@H]1N(C)C [RV14, erythromycin-monopropionate-S-carboxymethyl cysteinate]
B. anthranis SS 08
  MIC: 0.4 µg/mL (≈ 0.506 µM)
Citrobacter SS 09
  MIC: > 200 µg/mL
Staph. albus SS 03
  MIC: 0.1 µg/mL (≈ 0.127 µM)
Strept. faecalis SS 19
  MIC: 0.05 µg/mL (≈ 0.0633 µM)
Ps. aeruginosa SS 10
  MIC: 100 µg/mL (≈ 127 µM)
Pr. vulgaris SS 10
  MIC: > 200 µg/mL
E. coli SS 06
  MIC: 25 µg/mL (≈ 31.6 µM)
B. cereus ATCC 11778
  MIC: 0.4 µg/mL (≈ 0.506 µM)
S. lutea ATCC 9341
  MIC: 0.01 µg/mL (≈ 0.0127 µM)
Cl. tetani SS 17
  MIC: 0.2 µg/mL (≈ 0.253 µM)
Staph. albus SS 04
  MIC: 0.05 µg/mL (≈ 0.0633 µM)
[5]; 0.30 hours, 18 min
  Hematic levels in the healthy volunteer: 1.20 µg/mL
[5]; 1 hour, 60 min
  Hematic levels in the healthy volunteer: 1.78 µg/mL
[5]; 2 hours, 120 min
  Hematic levels in the healthy volunteer: 2.28 µg/mL
[5]; 3 hours, 180 min
  Hematic levels in the healthy volunteer: 1.60 µg/mL
[5]; 4 hours, 240 min
  Hematic levels in the healthy volunteer: 1.21 µg/mL
[6]; 0.3 h
  Hematic levels in the rat: 0.72 µg/mL
[6]; 1 h
  Hematic levels in the rat: 1.85 µg/mL
[6]; 2 h
  Hematic levels in the rat: 2.55 µg/mL
[6]; 3 h
  Hematic levels in the rat: 1.39 µg/mL
[6]; 4 h
  Hematic levels in the rat: 0.65 µg/mL
[6]; 5 h
  Hematic levels in the rat: 0.54 µg/mL
[6]; 6 h
  Hematic levels in the rat: 0.07 µg/mL
[6]; rat
  absorption by oral route (in words): absorbed by oral route in a rate practically analogous to that of erythromycin estolate
Acute toxicity
  LD50 (reliability limits): 3000 mg·kg
Kl. aerogenes SS 71
  MIC: 100 µg/mL (≈ 127 µM)
Citrobacter SS 05
  MIC: > 200 µg/mL
Br. melitensis SS 19
  MIC: 3 µg/mL (≈ 3.8 µM)
D. pneumoniae SS 23 [2]; os, D. pneumoniae SS 23, mg/kg of erythromycin, survival after 7 days, 10080 min
  ED50 (reliability limits): 123.74 (148.77-102.92) mg/kg
S. heidelberg SS 18
  MIC: 100 µg/mL (≈ 127 µM)
Sr. marcescens SS 03
  MIC: 200 µg/mL (≈ 253 µM)
Staph. aureus SS 07 [7]
  MIC: 0.025 µg/mL (≈ 0.0316 µM)
Br. abortus SS 7
  MIC: 12 µg/mL (≈ 15.2 µM)
E. coli SS 05
  MIC: 50 µg/mL (≈ 63.3 µM)
[3]; oral, 500 mg/kg
  Partial obstruction (% incidence): 13.33%
  Total obstruction, compact plug (% incidence): 26.66%
  Total obstruction, nodular mass (% incidence): 6.66%
  Total obstruction, pimply mass (% incidence): 6.66%
B. subtilis ATCC 6633
  MIC: 0.025 µg/mL (≈ 0.0316 µM)
B. subtilis SS 127
  MIC: 0.05 µg/mL (≈ 0.0633 µM)
[8]
  MIC: 1.5 µg/mL (≈ 1.9 µM)
C. diphtheriae SS 19
  MIC: 0.01 µg/mL (≈ 0.0127 µM)
N. gonorreae SS 27
  MIC: 0.8 µg/mL (≈ 1.01 µM)
Staph. aureus SS 09
  MIC: 0.1 µg/mL (≈ 0.127 µM)
Pr. mirabilis SS 09
  MIC: > 200 µg/mL
Kl. pneumoniae SS 04
  MIC: 100 µg/mL (≈ 127 µM)
H. tubercolosis SS 03
  MIC: 50 µg/mL (≈ 63.3 µM)
S. infantis SS 08
  MIC: 100 µg/mL (≈ 127 µM)
Staph. aureus SS 08
  MIC: 0.05 µg/mL (≈ 0.0633 µM)
D. pneumoniae SS 23 [9]
  MIC: 0.05 µg/mL (≈ 0.0633 µM)
[10]
  MIC: 0.8 µg/mL (≈ 1.01 µM)
N. meningitidis SS 04
  MIC: 0.8 µg/mL (≈ 1.01 µM)
E. coli SS 04
  MIC: 100 µg/mL (≈ 127 µM)
H. pertussis SS 03
  MIC: 0.4 µg/mL (≈ 0.506 µM)
E. coli SS 07
  MIC: 50 µg/mL (≈ 63.3 µM)
[4]; oral, 500 mg/kg, free non obstructed
  histological appearance of non obstructed bronchi: presence of bronchi having almost normal appearance
[4]; oral, 500 mg/kg
  histological appearance of obstructed bronchial tract: fully like that of the control animals
E. aerogenes SS 011
  MIC: 50 µg/mL (≈ 63.3 µM)
B. anthranis SS 09
  MIC: 0.8 µg/mL (≈ 1.01 µM)
C. albicans SS 04
  MIC: 200 µg/mL (≈ 253 µM)
E. cloacae SS 07
  MIC: > 200 µg/mL
H. influentiae SS 02
  MIC: 1.5 µg/mL (≈ 1.9 µM)
